Test results as given in patent publication US20020042437A1 (priority 1997, published 2002).
Read-outs that look alike come from different tables or passages of the source.

System: Phytophthora infestans
Format: in vivo
Conditions: single active ingredient, tomato leaves, infected next day, evaluated after 6 days

Compound | Efficacy in % of the untreated control (0.25 ppm in the spray liquor) [%] | Efficacy in % of the untreated control (0.5 ppm in the spray liquor) [%] | Efficacy in % of the untreated control (1 ppm in the spray liquor) [%]
CCC(C)(NC(=O)c1cc(Cl)c(C)c(Cl)c1)C(=O)CCl (stereo not drawn) [Compound II.1] | 0 | 20 | –
CO/N=C(/C(=O)OC)c1ccccc1COc1ccccc1C [Ia] | 0 | 0 | 0
CNC(=O)/C(=N/OC)c1ccccc1COc1cc(C)ccc1C [Ib] | 0 | – | –
